The results in this text go back to USRE39921E1, “Chemical compounds” (SmithKline Beecham Corporation, priority 1999, dated 2007).

Counter-ions that a name gives are not always drawn.

For data set [1], the target named is T1, recombinant human NK1 receptors (Homo sapiens, UniProt P25103).
T1 construct: expressed in transfected cells; host or cells: Chinese Hamster Ovary (CHO) cells, membrane preparation
The data set is described as follows: NK1-receptor binding affinity: displacement of [3H]-substance P from CHO cell membranes. The note with it: average of at least two determinations, [3H]-substance P displacement, read-out: pki (negative logarithm of the inhibition constant Ki of displacer ligands) (converted). The procedure:
Thus ligand binding was performed in 0.4 ml of 50 mM HEPES, pH 7.4, containing 3 mM MnCl2, 0.02% BSA, 0.5 nM [^3H]Substance P (30+56 Ci/mmol, Amersham), a final membrane concentration of 25 μg of protein/ml, and the test compounds. The incubation proceeded at room temperature for 40 min.
The affinity of the compound of the invention for NK1 receptor was determined using the NK1-receptor binding affinity method measuring in vitro by the compounds' ability to displace [3H]—substance P (SP) from recombinant human NK1 receptors expressed in Chinese Hamster Ovary (CHO) cell membranes. The affinity values are expressed as negative logarithm of the inhibition constant (Ki) of displacer ligands (pKi).
Background: Displacement assays read how much labelled ligand stays bound in the presence of the test substance.

Another data set concerns the target T2, nk1 receptor (Meriones unguiculatus, UniProt Q5DUB1).
T2 construct: from tissue; host or cells: living gerbil, central NK1 receptors (agonist infused icv)
The data set is described as follows: gerbil foot tapping model (hind foot tapping induced by icv NK1 agonist). In kind it is in vivo. The note with it: oral administration, one hour before icv NK1 agonist; dose inhibiting tapping by 50%. As to the method:
The action of the compounds of the invention at the NK1 receptor may be determined by using conventional tests. Thus the ability to bind at the NK1 receptor was determined using the gerbil foot tapping model as described by Rupniak & Williams, Eur. J. of Pharmacol., 1994.
The ability of the compounds of the invention at the nk1 receptor may be determined using the gerbil foot tapping model as described by Rupniak & Williams, Eur. Jour. of Pharmacol., 1994.
The compound was administered orally and one hour later an NK1 agonist (e.g. delta-Aminovaleryl^6[Pro^9,Me-Leu^10]-substance P (7-11)) (3 pmol in 5 μL, icv) was infused directly in the cerebral ventricules of the animals. The duration of hind foot tapping induced by the NK1 agonist (e.g. delta-Aminovaleryl^6[Pro^9,Me-Leu^10]-substance P (7-11)) was recorded continuously for 3 min using a stopclock. […] Alternatively the compounds may be administered subcutaneously or intraperitoneally.

T1 sequence (P25103 whole entry): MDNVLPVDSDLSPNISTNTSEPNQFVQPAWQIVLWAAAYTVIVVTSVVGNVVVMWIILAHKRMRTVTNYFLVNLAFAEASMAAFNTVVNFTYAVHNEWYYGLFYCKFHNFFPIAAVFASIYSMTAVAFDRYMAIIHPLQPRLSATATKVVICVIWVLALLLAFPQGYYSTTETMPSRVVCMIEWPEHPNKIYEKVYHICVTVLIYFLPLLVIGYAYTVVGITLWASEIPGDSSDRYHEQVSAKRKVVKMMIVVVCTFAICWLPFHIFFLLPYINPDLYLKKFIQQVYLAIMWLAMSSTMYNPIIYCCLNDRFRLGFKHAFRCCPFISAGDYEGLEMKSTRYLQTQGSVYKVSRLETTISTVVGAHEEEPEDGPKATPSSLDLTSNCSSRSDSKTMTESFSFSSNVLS
T2 sequence (Q5DUB1 whole entry, the tested form may be a part): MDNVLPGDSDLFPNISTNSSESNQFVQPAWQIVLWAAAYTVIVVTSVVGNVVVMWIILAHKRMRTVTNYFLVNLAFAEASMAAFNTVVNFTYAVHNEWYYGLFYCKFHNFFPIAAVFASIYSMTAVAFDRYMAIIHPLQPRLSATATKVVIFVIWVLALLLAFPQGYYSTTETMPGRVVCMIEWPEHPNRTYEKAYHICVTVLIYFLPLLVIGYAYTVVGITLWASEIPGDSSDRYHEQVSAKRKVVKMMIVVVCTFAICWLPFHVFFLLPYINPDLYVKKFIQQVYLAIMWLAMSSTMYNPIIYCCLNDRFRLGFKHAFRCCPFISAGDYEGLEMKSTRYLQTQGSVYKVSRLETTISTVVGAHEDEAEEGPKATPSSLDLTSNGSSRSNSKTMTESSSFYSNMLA

Regarding `CC(C)c1cccc(C2CNCCN2C(=O)N(C)Cc2cc(C(F)(F)F)cc(C(F)(F)F)c2)c1.Cl` (stereo not drawn), the melting point (usually the temperature of the solid-liquid transition) was in the range of 77 to 80 °C.

For the molecule `Cc1cc(F)ccc1C1CNCCN1C(=O)N1CC=CCC1c1cc(C(F)(F)F)cc(C(F)(F)F)c1` (single isomer, unassigned) [Example 28, hydrochloride], the Ki – broadly, a dissociation constant, usually derived from enzyme kinetics or from competition with a known ligand – in data set [1] is 0.49 nM.

Take `Cc1cc(F)ccc1[C@H]1CNCCN1C(=O)N1CCCCC1c1cc(C(F)(F)F)cc(C(F)(F)F)c1` (single isomer, unassigned) [Example 29, hydrochloride]: in data set [1], the inhibition constant (Ki) was 1.35 nM.

Consider `C=CCC(c1cc(C(F)(F)F)cc(C(F)(F)F)c1)N(C)C(=O)N1CCNCC1c1ccc(F)cc1C` (single isomer, unassigned) [Example 30, 2-(4-Fluoro-2-methyl-phenyl)-piperazine-1-carboxylic acid [1-(3,5-bis-trifluoromethyl-phenyl)-but-3-enyl]-methyl-amide hydrochloride], for which, in data set [1], the Ki is 1.66 nM.

As to `Cc1cc(F)ccc1C1CNCCN1C(=O)N(C)C(c1cc(C(F)(F)F)cc(C(F)(F)F)c1)C(C)C` (single isomer, unassigned) [Example 32, 2-(4-Fluoro-2-methyl-phenyl)-piperazine-1-carboxylic acid [1-(3,5-bis-trifluoromethyl-phenyl)-2-methyl-propyl]-methyl-amide hydrochloride], the Ki in data set [1] was 1.02 nM.

Consider `Cc1cc(F)ccc1C1CNCCN1C(=O)N(C)C(c1cc(C(F)(F)F)cc(C(F)(F)F)c1)C1CC1` (single isomer, unassigned) [Example 34, 2(4-Fluoro-2-methyl-phenyl)-piperazine-1-carboxylic acid [(3,5-bis-trifluoromethyl-phenyl)-cyclopropyl-methyl]-methyl-amide hydrochloride], for which, in data set [1], the inhibitory constant (Ki) is 0.794 nM.

On to `Cc1cc(F)ccc1C1CNCCN1C(=O)N(C)Cc1cc(C(F)(F)F)cc(C(F)(F)F)c1.Cl` (stereo not drawn) [Example 1, 2-(4-Fluoro-2-methyl-phenyl)-piperazine-1carboxylic acid (3,5-bistrifluoromethyl-benzyl)-methyl-amide hydrochloride], for which the melting point is > 220 °C. Moreover, the inhibition constant Ki in data set [1] is 1.07 nM.

For the molecule `Cc1cc(C2CNCCN2C(=O)N(C)Cc2cc(C(F)(F)F)cc(C(F)(F)F)c2)ccc1F.Cl` (stereo not drawn) [Example 4, 2(4-Fluoro-3-methyl-phenyl)-piperazine-1-carboxylic acid (3,5-bis-trifluoromethyl-benzyl)-methyl-amide hydrochloride], the melting point was 70 to 72 °C. The Ki in data set [1] was 4.37 nM.

Regarding `CN(Cc1cc(C(F)(F)F)cc(C(F)(F)F)c1)C(=O)N1CCNCC1c1ccc(F)cc1F.Cl` (stereo not drawn) [Example 5, 2-(2,4-Difluoro-phenyl)-piperazine-1-carboxylic acid (3,5-bis-trifluoromethyl-benzyl)-methyl-amide hydrochloride], the melting point lay within 220 to 230 °C. In data set [1], the inhibitory constant (Ki) is 2.14 nM.

For the molecule `Cc1cc(F)ccc1[C@H]1CNCCN1C(=O)N(C)Cc1cc(C(F)(F)F)cc(C(F)(F)F)c1` [Example 8, (−)-2-(S)-(4-Fluoro-2-methyl-phenyl)-piperazine-1-carboxylic acid (3,5-bis-trifluoromethyl-benzyl)-methyl-amide hydrochloride], the inhibitory constant (Ki) in data set [1] is 0.427 nM.

For `CN(Cc1cc(C(F)(F)F)cc(C(F)(F)F)c1)C(=O)N1CCNCC1c1ccc(F)cc1` (stereo not drawn) [Example 12, hydrochloride], the inhibition constant Ki in data set [1] is 2 nM.

Turning to `CN(Cc1ccc(C(F)(F)F)c(C(F)(F)F)c1)C(=O)N1CCNCC1c1ccc(F)cc1.Cl` (stereo not drawn) [Example 12], the melting point was > 200 °C.

With `CN(Cc1cc(C(F)(F)F)cc(C(F)(F)F)c1)C(=O)N1CCNCC1c1ccc(Cl)cc1Cl` (stereo not drawn) [Example 14, 2-(2,4-Dichloro-phenyl)-piperazine-1-carboxylic acid (3,5-bistrifluoro methyl-benzyl)-methyl-amide hydrochloride], in data set [1], the Ki was 2 nM.

Consider `CC(=O)O.Cc1cc(F)ccc1[C@H]1CNCCN1C(=O)N(C)[C@@H](C)c1cc(C(F)(F)F)cc(C(F)(F)F)c1` [Example 19, 2-(S)-(4-Fluoro-2-methyl-phenyl)-piperazine-1-carboxylic acid [1-(S)-(3,5-bis-trifluoromethyl-phenyl)-ethyl]-methyl-amide acetate], for which the ED50(mg/kg po) at nk1 receptor was determined as 0.04 mg/kg.

The molecule `Cc1cc(F)ccc1[C@H]1CN(C(=O)CN)CCN1C(=O)N(C)Cc1cc(C(F)(F)F)cc(C(F)(F)F)c1.Cl` [Example 20, 4-(2-Amino-acetyl)-2-(S)-(4-fluoro-2-methyl-phenyl)-piperazine-1-carboxylic acid (3,5-bis-trifluoromethyl-benzyl)-methyl-amide hydrochloride] returned an ED50(mg/kg po) at nk1 receptor of 0.065 mg/kg. For the same molecule, in data set [1], the Ki was 0.347 nM.

Regarding `Cc1cc(F)ccc1[C@H]1CNCCN1C(=O)N(C)C(C)(C)c1cc(C(F)(F)F)cc(C(F)(F)F)c1.Cl` [Example 21, 2-(S)-(4-Fluoro-2-methyl-phenyl)-piperazine-1-carboxylic acid [1-(3,5-bis-trifluoromethyl-phenyl)-1-methyl-ethyl]-methyl-amide hydrochloride], the ED50(mg/kg po) at nk1 receptor came out at 0.4 mg/kg. Besides, the inhibition constant (Ki) in data set [1] is 1.12 nM.

For the molecule `Cc1cc(F)ccc1[C@H]1CN(CCN)CCN1C(=O)N(C)Cc1cc(C(F)(F)F)cc(C(F)(F)F)c1` [Example 22, 4(2-Aminoethyl)-2-(S)-(4-fluoro-2-methyl-phenyl)-piperazine-1-carboxylic acid (3,5-bis-trifluoromethyl-benzyl)-methyl-amide dihydrochloride Salt], the inhibition constant (Ki) in data set [1] was 0.407 nM.

With `Cc1cc(F)ccc1C1C(C)NCCN1C(=O)N(C)Cc1cc(C(F)(F)F)cc(C(F)(F)F)c1` (stereo not drawn) [Example 23, 2-(4-Fluoro-2-methyl-phenyl)-3-methyl-piperazine-1-carboxylic acid (3,5-bis-trifluoromethyl-benzyl)-methyl-amide hydrochloride salt], the Ki in data set [1] is 0.479 nM.

In the case of `Cc1cc(F)ccc1C1CNCC(C)N1C(=O)N(C)Cc1cc(C(F)(F)F)cc(C(F)(F)F)c1.Cl` (stereo not drawn) [Example 24, 2-(2-Methyl-4-fluoro-phenyl)-6-methyl-piperazine-1-carboxylic acid (3,5-bis-trifluoromethyl-benzyl)-methyl-amide hydrochloride salt], the melting point is > 200 °C. The inhibitory constant (Ki) in data set [1] is 0.661 nM.

For `Cc1cc(F)ccc1[C@H]1CNCCN1C(=O)N(C)C1(c2cc(C(F)(F)F)cc(C(F)(F)F)c2)CC1` [Example 25, 2-(S)-(4-Fluoro-2-methyl-phenyl)-piperazine-1-carboxylic acid [1-3,5-bis-trifluoromethyl-phenyl)-cyclopropyl]-methyl-amide hydrochloride], the inhibitory constant (Ki) in data set [1] is 0.479 nM.

For the molecule `CS(=O)(=O)O.Cc1cc(F)ccc1[C@H]1CNCCN1C(=O)N(C)[C@H](C)c1cc(C(F)(F)F)cc(C(F)(F)F)c1` [Example 36, 2(S)-(4-Fluoro-2-methyl-phenyl)-piperazine-1-carboxylic acid [1-(R)-(3,5-bis-trifluoromethyl-phenyl)-ethyl]-methyl-amide methansulphonate], the ED50(mg/kg po) at nk1 receptor was determined as 0.05 mg/kg.
